Results published in patent US20200345637A1, “SUSPENSION COMPOSITIONS OF MULTI-TARGET INHIBITORS” (AIVIVA BIOPHARMA, INC., priority 2018, published 2020).
Converted amounts (≈) assume the structure as drawn. “And” between values parts separate entries of the source, which are not always exact repeats. Identical values can stand only once. Like-named read-outs stand apart in the source and are kept apart here.

Key:
[1] = systemic; literature or US label; cited from earlier work
[2] = rabbit, in vivo
Experimental: (§2) This study evaluated the local tolerance of vehicle, axitinib, pirfenidone, sorafenib and lenvatinib and ocular distribution of axitinib, sorafenib and lenvatinib (0.3% w/w) when administered by topical ocular instillation in the eyes of New Zealand white rabbits (n=6 per group). […] On Dosing Day 5, the animals were sacrificed and eyes were enucleated. Ocular and plasma concentrations of select compounds were measured by LC-MS/MS.

in vivo [3] = conditions: New Zealand White, rabbit
Experimental: as §2

in vivo [4] = experiment: in vivo; parameters: species or system New Zealand White rabbits; conditions: male, New Zealand White, rabbit
Experimental: Five to seven male New Zealand White rabbits were used per treatment group. Each eye received a 35 μl eyedrop of vehicle, or respective drugs (0.3%) three times daily for 10 days. After the last dose on Day 11, the animals were sacrificed and eyes were enucleated, and plasma and the ocular tissues were collected. Tissue and plasma concentrations of these compounds were measured by LC-MS/MS.

in vivo [5] = conditions: Dutch Belted, rabbit
Experimental: (§3) This study evaluated the tolerability and dispersion of the formulations of nintedanib and lenvatinib over 42 days in the posterior segment of the eyes. A single 50 μL intravitreal administration of the 1% suspension was administered to Dutch Belted rabbits.

[6] = test system: choroid neovascularization lesions; experiment: Laser-induced choroid neovascularization model in rats; assay type: in vivo, Brown Norway rats; conditions: intravitreal injection 50 μg/eye; fluorescein angiography Day 22
Experimental: The tolerability, efficacy, and ocular distribution were evaluated in a laser-induced choroid neovascularization model in rats. […] In this 22-day study, effects of local administration of the multi-target (i.e., multi-target kinase) inhibitors nintedanib and lenvatinib were examined on the development of new vessels. Vehicle and positive control groups were included in the study. Female Brown Norway rats were divided into 7 separate treatment groups. On Day 1, laser treatments were performed on all animals using a 520 nm thermal laser to generate a total of three lesions per eye. […] On Day 3, bilateral intravitreal injections of vehicle, 5 μg/eye of rat anti-VEGF antibody, 50 μg/eye of nintedanib, or 50 μg/eye of lenvatinib were performed. On Day 22, fluorescein angiography was performed on all animals, and the lesion sizes/areas were determined using image analysis software (Image J). […] Concentrations of test compounds in ocular tissues and plasma were measured by LCMS-MS after intravitreal or eyedrop administration in rats. […] The eyedrop administration produced higher drug concentrations in the ocular surface, such as conjunctiva, than the intravitreal injection. Three times daily eyedrop administration maintained higher concentrations in plasma than a single intravitreal injection.

[7] = Terminal sterilization and stability assay of formulated suspension; assay type: physicochemical
Excerpt: (§1) Examples 1-3 depict the results of physical testing of some subject formulations.

[8] = rabbit, in vivo; for tissue concentrations in the retina and choroid / intravitreal dose remained in the vitreous humor / depot and streaks in vitreous humor by fundus imaging: Dutch Belted
Experimental: as §3

[9] = Suspension physical testing: particle size, pH, osmolality, syringeability; assay type: physicochemical; parameters: API Raw Material PSD D50 / Formulated Suspension Particle size distribution D50 / API Raw Material PSD D90 / Formulated Suspension Particle size distribution D90: unit not given here; conditions: for Formulated Suspension Syringeability: needle gauge passed
Excerpt: as §1

[10] = Aqueous solubility of multi-target inhibitors; assay type: physicochemical; conditions: aqueous (not further specified)
Excerpt: Non-limiting examples of the useful multi-target inhibitors and their physicochemical forms are given in Table 1 with aqueous solubility information.

[11] = test system: linear incision wound sites; experiment: Intradermal injection along linear incision wounds, histological evaluation; assay type: in vivo, minipigs; conditions: for granulation tissue formation compared to vehicle treated control wounds / presence of myofibroblasts compared to vehicle treated control wounds: 2% suspension (sorafenib 1% suspension); for SMA staining / dermis fibrin / dermis fibroplasia / dermis provisional matrix / epidermis hyperplasia / inflammation / subcutis fibroplasia / subcutis mixed cell infiltrate: microscopic grade over 29 days
Experimental: The purpose of this study was to evaluate the suspension formulation when administered via intradermal injection with axitinib, nintedanib, sorafenib, and lenvatinib to the dorsal skin along linear incisions of minipigs.
Four male minipigs were dosed. Animals were dosed once via intradermal injection along the edges of each of 10 wound sites for each animal (5 wounds on each side of the dorsum [perpendicular to the spine], approximately 3 cm in length and 3 cm distance from the spine). Axitinib, nintedanib, lenvatinib, and the vehicle control article were administered via eight 0.1 mL intradermal injections around each respective wound site (one injection/cm on both sides of the wound), for a total volume of 0.8 mL/wound site. Sorafenib was administered via the same method at a volume of 0.2 mL/injection, for a total volume of 1.6 mL/wound site. The vehicle control article was Vehicle for Test Articles axitinib, nintedanib, lenvatinib, and sorafenib.
A generalized measure of inflammation, including inflammatory cell infiltrate, fibrin deposition, fibroplasia, epithelial hyperplasia and areas of tissue necrosis were assessed microscopically. […] For test agent treated wounds, all were graded as slight on Day 4, and there was no consistent difference over time as compared to the control group.

Row | SMILES | terminal plasma half-life in man [1] [h] | concentration at 29 days (in vivo [5]) [ng/mL] | concentration at 42 days (in vivo [5]) [ng/mL] | lesion sizes relative to vehicle-treated eyes [6] | Assay (% of labeled claim) of Formulated Suspension, Initial ([7]; Autoclave) | Assay (% of labeled claim) of Formulated Suspension, 4 months (40° C./75% RH) ([7]; Gamma irradiation) | Assay (% of labeled claim) of Formulated Suspension, 6 weeks (40° C./75% RH) ([7]; Gamma irradiation) | Assay (% of labeled claim) of Formulated Suspension, Initial ([7]; Gamma irradiation) | tissue concentrations in the retina and choroid [8] | depot and streaks in vitreous humor by fundus imaging ([8]; 42 days) | intravitreal dose remained in the vitreous humor ([8]; 42 days) | API Raw Material PSD D50 [9] | API Raw Material PSD D90 [9] | Formulated Suspension Osmolality [9] [mOsm/kg] | Formulated Suspension Particle size distribution D50 [9] | Formulated Suspension Particle size distribution D90 [9] | Formulated Suspension pH [9] | Formulated Suspension Syringeability [9] | solubility [10] [µg/mL] | granulation tissue formation compared to vehicle treated control wounds [11] | other results
1 | COc1cc2nccc(Oc3ccc(NC(=O)NC4CC4)c(Cl)c3)c2cc1C(N)=O [Lenvatinib] | 30 | 4.94 | 3.91 | significantly reduced lesion sizes | 99.0 % of labeled claim | 99.8 % of labeled claim and 100.2 % of labeled claim | 99.2 % of labeled claim and 99.8 % of labeled claim | 101.4 % of labeled claim and 102.4 % of labeled claim | over 1 μg/gm | remained present out to Day 42 postdose | 3-9% | D50: 164 | D90: 346 | 201 | D50: 7 | D90: 25 | 7.6 | Pass 27G | 4 (≈ 9.37 µM) | delay in granulation tissue formation | concentrations in the choroid and retina [2]: significant concentrations; drug concentrations in anterior tissues of conjunctiva, sclera and cornea [2]: high drug concentrations; concentration at 5 day of dosing (in vivo [3]): 131 ng/mL; concentration at 11 day (after the last dose) (in vivo [4]): 98.5 ng/mL; lesion sizes relative to positive control, rat anti-VEGF [6]: significantly reduced lesion sizes; intravitreal dose remained in the vitreous humor ([8]; 29 days): 9-17%; presence of myofibroblasts compared to vehicle treated control wounds [11]: prolonged presence of myofibroblasts; SMA staining [11]: slight; dermis fibrin [11]: minimal to slight; dermis fibroplasia [11]: minimal to slight; dermis provisional matrix [11]: marked to minimal; epidermis hyperplasia [11]: slight to none; inflammation [11]: slight to marked; subcutis fibroplasia [11]: moderate to minimal; subcutis mixed cell infiltrate [11]: slight to severe
2 | COC(=O)c1ccc2c(c1)NC(=O)/C2=C(\Nc1ccc(N(C)C(=O)CN2CCN(C)CC2)cc1)c1ccccc1 [Nintedanib] | 9.5 | 0.252 | 0.348 | significantly reduced lesion sizes | 96.0 % of labeled claim | 90.0 % of labeled claim and 97.9 % of labeled claim | 98.1 % of labeled claim and 99.7 % of labeled claim | 101.8 % of labeled claim and 103.0 % of labeled claim | higher than 1 μg/gm | remained present out to Day 42 postdose | 4-7% | D50: 68 | D90: 105 | 207 | D50: 22 | D90: 35 | 7.6 | Pass 23G | 9 (≈ 16.7 µM) | delay in granulation tissue formation | Concentrations in conjunctival tissue [8]: mostly under quantitation limit; presence of myofibroblasts compared to vehicle treated control wounds [11]: prolonged presence of myofibroblasts; SMA staining [11]: none to moderate; dermis fibrin [11]: slight to moderate; dermis fibroplasia [11]: none to slight; dermis provisional matrix [11]: marked; epidermis hyperplasia [11]: minimal to moderate; inflammation [11]: slight to moderate; subcutis fibroplasia [11]: none to moderate; subcutis mixed cell infiltrate [11]: slight to marked
